Patent US20210322417A1, “GASTRIC CANCER TREATMENTS” (The Jackson Laboratory, priority 2018, published 2021)

Assays:
CSK null OE19 cells [1] = experiment: CellTiter-Glo cell viability assay, CSK null OE19; format: cell-based, human; conditions: 6 days
Experimental: (§3) Then N87 and OE19 cells were infected with the corresponding viruses and the Lapatinib resistance was examined by treating the cells with indicated doses of Lapatinib for 6 days. Cell viability assay was performed as described below at the end of treatment.
(§4) For the cell viability assays, 4,000 cells/each well in a 96-well plate were treated with indicated drugs for 6 days and cell viabilities were measured using the CellTiter-Glo® luminescent cell viability assay kit according to the manufacturer's instructions (Promega). The luminescence intensity was measured using a multi-label plate reader (SpectraMax M5, Molecular Devices). The cell viabilities were calculated as relative values compared to the untreated controls.

PTEN null OE19 cells [2] = experiment: CellTiter-Glo cell viability assay, PTEN null OE19; format: cell-based, human; conditions: 6 days
Experimental: as §3, §4

[3] = system: OE19 cells transduced with non-targeting gRNA; experiment: CellTiter-Glo cell viability assay, control OE19; format: cell-based, human; conditions: indicated doses of the agent in combination with 0.05 μM Lapatinib, 6 days
From the text: Viral particles were generated as described above.

[4] = system: OE19 cells transduced with non-targeting gRNA; experiment: Caspase-Glo 3/7 apoptosis assay, control cells; format: cell-based, human; conditions: Lapatinib 48 h treatment
Experimental: (§1) We examined apoptosis induced by Lapatinib treatment in CSK or PTEN null cells as well as the control cells by measuring caspase-3/7 activation (Caspase-Glo assay).
(§2) Caspase activity was detected by using Caspase-Glo 3/7 assay kit (Promega). Briefly. The GC cells were seeded in 96-well white luminometer assay plates at a density of 4,000 cells per well and incubated at 37° C. Cells were treated with Lapatinib for 48 h, 100 ul caspase 3/7 reagents were added to each well and incubated for 1 h on rotary shaker at room temperature. The luminescence intensity was measured using a multi-label plate reader (SpectraMax M5, Molecular Devices).

CSK null OE19 cells [5] = experiment: Caspase-Glo 3/7 apoptosis assay, CSK null cells; format: cell-based, human; conditions: Lapatinib 48 h treatment
Experimental: as §1, §2

N87-WT tumors = experiment: Xenograft tumor model, N87-WT; format: in vivo, mice; conditions: lapatinib dosing test, three weeks of treatment
From the text: Tumors were induced by injecting N87-WT. […] Drug treatment was initiated when tumors reached a volume of 150-250 mm^3. Mice were randomly divided into seven treatment groups including 8-10 mice in each group: 1) vehicle only, 2) lapatinib only, 3) lapatinib+trametinib, 4) lapatinib+copanlisib, 5) trametinib+copanlisib, 6) lapatinib+trametinib+copanlisib, and 7) 5-FU.

N87-CSK−/− tumors = conditions: lapatinib dosing test, three weeks of treatment; N87-CSK−/− xenograft, compared to N87-WT
HER2-amplified GC = conditions: HER2-positive GC patients, clinical trial data; cited from earlier work
PTEN null OE19 cells [6] = experiment: Caspase-Glo 3/7 apoptosis assay, PTEN null cells; format: cell-based, human; conditions: Lapatinib 48 h treatment
Experimental: as §1, §2

N87-PTEN−/− tumors = experiment: Xenograft tumor model, N87-PTEN−/−; conditions: lapatinib dosing test, three weeks of treatment, compared to N87-WT
[7] = AZD0530 at highest concentration (1 μM) in combination with 0.05 μM Lapatinib
[8] = 0.1 μM of the agent in combination with 0.05 μM Lapatinib
[9] = indicated doses of the agent in combination with 0.05 μM Lapatinib

With `CN1CCN(CCOc2cc(OC3CCOCC3)c3c(Nc4c(Cl)ccc5c4OCO5)ncnc3c2)CC1` [AZD0530, Saracatinib] the cells survived (CSK null OE19 cells [1]; [7]) was 9.15±0.88% and the cells survived (PTEN null OE19 cells [2]; [7]) was 42.49±2.54%.

With `COc1c(OCCCN2CCOCC2)ccc2c1N=C(NC(=O)c1cnc(N)nc1)N1CCN=C21` [Copanlisib] the “effect on cell growth” value [3] was “inhibited the cell growth”, the “effect on cell growth” value (CSK null OE19 cells [1]; [8]) was “significantly inhibited the cell growth, but not completely” and the “effect on cell growth/viability” value (CSK null OE19 cells [1]; [9]) was “inhibited the cell growth”. For the same compound, the “effect on cell growth” value (PTEN null OE19 cells [2]; [8]) was “significantly inhibited the cell growth, but not completely” and the “effect on cell growth/viability” value (PTEN null OE19 cells [2]; [9]) was “inhibited the cell growth”.

In the case of `CS(=O)(=O)CCNCc1ccc(-c2ccc3ncnc(Nc4ccc(OCc5cccc(F)c5)c(Cl)c4)c3c2)o1` [Lapatinib], the “fold of caspase-3/7 activity compared with vehicle treated cells” value (“fold of caspase-3/7 activity” for short) [4] is reported as 3.79±0.16 fold, the “fold of caspase-3/7 activity” value (CSK null OE19 cells [5]) is reported as 1.55±0.16 fold and the “tumor sensitivity to treatment” value (N87-WT tumors) is reported as “sensitive to lapatinib treatment”. For the same compound, the “tumor sensitivity to treatment” value (N87-CSK−/− tumors) was “relatively insensitive to lapatinib”, the “survival” value (HER2-amplified GC) was “failed to improve survival” and the “fold of caspase-3/7 activity” value (PTEN null OE19 cells [6]) was 1.50±0.10 fold. For the same compound, the “effect on cell growth” value (CSK null OE19 cells [1]; 0.05 μM Lapatinib alone) was “could not inhibit the growth”, the “effect on cell growth” value (PTEN null OE19 cells [2]; 0.05 μM Lapatinib alone) was “could not inhibit the growth” and the “tumor sensitivity to treatment” value (N87-PTEN−/− tumors) was “resistant to lapatinib treatment”.
